# From US10961401B2, “UV cured benzophenone terminated quaternary ammonium antimicrobials for surfaces” (NANO SAFE COATINGS INCORPORATED, priority 2012, dated 2021)
# Where a name gives a salt, the structure may show the parent alone.
# Assays:
# Pseudomonas spp. CTO7 = experiment: Flow-cell antimicrobial test: bacterial cell count in effluent of coated silicone tubing; format: cell-based; conditions: 100 μL effluent plated on 10% TSA
# Description: Preparation of Self Assembled Monolayers on Silicone Tubing
# Silicone tubing was rinsed with IPA and H2O using a peristaltic pump then dried by running air through the tubes. A 0.05% (w/v) solution of 8a in H2O and a 0.5% (w/v) solution of 4c in H2O/IPA were prepared. Tubes were coated using the peristaltic pump and filled tubes were irradiated using a UV fumehood for 25 minutes. Coated tubes were then rinsed with H2O to remove any unbound materials.
# 1.5% (w/v) solutions of 8a and 4c in dichloromethane (DCM) were prepared. These solutions were pumped through clean silicone tubing using a syringe and irradiated using a UV quartz lamp for 30 minutes.
# Antimicrobial Test Method
# The antimicrobial efficacy was determined using a flow-cell method as described in Markison C and Swan J, “The Effect of Humidity on the Survival of MRSA on Hard Surfaces”, Indoor and Built Environment, 2006, 15(1), 85-91. A 1% tryptic soy broth and an inoculum of 10×10^4 cfu/mL of Pseudomonas spp. CTO7 were pumped through silicone tubing coated with 8a, 4c and a control tube for 30 hours. The tubes were then left stagnant for a period of 2 hours after which only the 1% TSB was allowed to flow through the tubes for 48 hours. During these 48 hours effluent samples of 100 μL were collected periodically and plated on 10% trypticase soy agar (TSA) in a dilution series up to 10×10^4. Sampling periods were time zero, 3 hours, 6 hours, 24 hours, 27 hours, 30 hours, and 48 hours. The number of colonies grown on each plate was counted in order to determine antimicrobial activity.
# [1] = time 0 hr, sample dilution 10^0
# [2] = time 0 hr, sample dilution 10^−1
# [3] = time 0 hr, sample dilution 10^−2
# [4] = time 0 hr, sample dilution 10^−3
# [5] = time 0 hr, sample dilution 10^−4
# [6] = time 3 hr, sample dilution 10^0
# [7] = time 3 hr, sample dilution 10^−1
# [8] = time 3 hr, sample dilution 10^−2
# [9] = time 3 hr, sample dilution 10^−3
# [10] = time 3 hr, sample dilution 10^−4
# [11] = time 6 hr, sample dilution 10^0
# [12] = time 6 hr, sample dilution 10^−1
# [13] = time 6 hr, sample dilution 10^−2
# [14] = time 6 hr, sample dilution 10^−3
# [15] = time 6 hr, sample dilution 10^−4
# [16] = time 24 hr, sample dilution 10^0
# [17] = time 24 hr, sample dilution 10^−1
# [18] = time 24 hr, sample dilution 10^−2
# [19] = time 24 hr, sample dilution 10^−3
# [20] = time 24 hr, sample dilution 10^−4
# [21] = time 27 hr, sample dilution 10^0
# [22] = time 27 hr, sample dilution 10^−1
# [23] = time 27 hr, sample dilution 10^−2
# [24] = time 27 hr, sample dilution 10^−3
# [25] = time 27 hr, sample dilution 10^−4
# [26] = time 30 hr, sample dilution 10^0
# [27] = time 30 hr, sample dilution 10^−1
# [28] = time 30 hr, sample dilution 10^−2
# [29] = time 30 hr, sample dilution 10^−3
# [30] = time 30 hr, sample dilution 10^−4
# [31] = time 48 hr, sample dilution 10^0
# [32] = time 48 hr, sample dilution 10^−1
# [33] = time 48 hr, sample dilution 10^−2
# [34] = time 48 hr, sample dilution 10^−3
# [35] = time 48 hr, sample dilution 10^−4
Compound,Pseudomonas bacterial cell count on coated silicone tubing (Pseudomonas spp. CTO7; [1]) [cfu/mL],Pseudomonas bacterial cell count on coated silicone tubing (Pseudomonas spp. CTO7; [2]) [cfu/mL],Pseudomonas bacterial cell count on coated silicone tubing (Pseudomonas spp. CTO7; [3]) [cfu/mL],Pseudomonas bacterial cell count on coated silicone tubing (Pseudomonas spp. CTO7; [4]) [cfu/mL],Pseudomonas bacterial cell count on coated silicone tubing (Pseudomonas spp. CTO7; [5]) [cfu/mL],Pseudomonas bacterial cell count on coated silicone tubing (Pseudomonas spp. CTO7; [6]) [cfu/mL],Pseudomonas bacterial cell count on coated silicone tubing (Pseudomonas spp. CTO7; [7]) [cfu/mL],Pseudomonas bacterial cell count on coated silicone tubing (Pseudomonas spp. CTO7; [8]) [cfu/mL],Pseudomonas bacterial cell count on coated silicone tubing (Pseudomonas spp. CTO7; [9]) [cfu/mL],Pseudomonas bacterial cell count on coated silicone tubing (Pseudomonas spp. CTO7; [10]) [cfu/mL],Pseudomonas bacterial cell count on coated silicone tubing (Pseudomonas spp. CTO7; [11]) [cfu/mL],Pseudomonas bacterial cell count on coated silicone tubing (Pseudomonas spp. CTO7; [12]) [cfu/mL],Pseudomonas bacterial cell count on coated silicone tubing (Pseudomonas spp. CTO7; [13]) [cfu/mL],Pseudomonas bacterial cell count on coated silicone tubing (Pseudomonas spp. CTO7; [14]) [cfu/mL],Pseudomonas bacterial cell count on coated silicone tubing (Pseudomonas spp. CTO7; [15]) [cfu/mL],Pseudomonas bacterial cell count on coated silicone tubing (Pseudomonas spp. CTO7; [16]) [cfu/mL],Pseudomonas bacterial cell count on coated silicone tubing (Pseudomonas spp. CTO7; [17]) [cfu/mL],Pseudomonas bacterial cell count on coated silicone tubing (Pseudomonas spp. CTO7; [18]) [cfu/mL],Pseudomonas bacterial cell count on coated silicone tubing (Pseudomonas spp. CTO7; [19]) [cfu/mL],Pseudomonas bacterial cell count on coated silicone tubing (Pseudomonas spp. CTO7; [20]) [cfu/mL],other results
"CN(C)c1cccc2c(S(=O)(=O)NCCC[N+](C)(C)CCCCOc3ccc(C(=O)c4ccccc4)cc3)cccc12 [Compound 8a, 4-(4-benzoylphenoxy)-N-(3-(5-(dimethylamino)naphthalene-1-sulfonamido)propyl)-N,N-dimethylbutan-1-ammonium bromide]",0,0,0,0,0,15,0,0,0,0,6,0,0,0,0,0,0,0,0,0,Pseudomonas bacterial cell count on coated silicone tubing (Pseudomonas spp. CTO7; [21]): 30 cfu/mL; Pseudomonas bacterial cell count on coated silicone tubing (Pseudomonas spp. CTO7; [22]): 0 cfu/mL; Pseudomonas bacterial cell count on coated silicone tubing (Pseudomonas spp. CTO7; [23]): 0 cfu/mL; Pseudomonas bacterial cell count on coated silicone tubing (Pseudomonas spp. CTO7; [24]): 0 cfu/mL; Pseudomonas bacterial cell count on coated silicone tubing (Pseudomonas spp. CTO7; [25]): 0 cfu/mL; Pseudomonas bacterial cell count on coated silicone tubing (Pseudomonas spp. CTO7; [26]): 18 cfu/mL; Pseudomonas bacterial cell count on coated silicone tubing (Pseudomonas spp. CTO7; [27]): 4 cfu/mL; Pseudomonas bacterial cell count on coated silicone tubing (Pseudomonas spp. CTO7; [28]): 0 cfu/mL; Pseudomonas bacterial cell count on coated silicone tubing (Pseudomonas spp. CTO7; [29]): 0 cfu/mL; Pseudomonas bacterial cell count on coated silicone tubing (Pseudomonas spp. CTO7; [30]): 0 cfu/mL; Pseudomonas bacterial cell count on coated silicone tubing (Pseudomonas spp. CTO7; [31]): 27 cfu/mL; Pseudomonas bacterial cell count on coated silicone tubing (Pseudomonas spp. CTO7; [32]): 1 cfu/mL; Pseudomonas bacterial cell count on coated silicone tubing (Pseudomonas spp. CTO7; [33]): 0 cfu/mL; Pseudomonas bacterial cell count on coated silicone tubing (Pseudomonas spp. CTO7; [34]): 0 cfu/mL; Pseudomonas bacterial cell count on coated silicone tubing (Pseudomonas spp. CTO7; [35]): 0 cfu/mL
CCCCCCCCCCCCCCCCCC[N+](C)(C)CCCOc1ccc(C(=O)c2ccccc2)cc1 [Compound 4c],300,300,48,8,0,20,0,0,0,0,160,15,0,0,0,300,200,21,4,0,Pseudomonas bacterial cell count on coated silicone tubing (Pseudomonas spp. CTO7; [21]): 300 cfu/mL; Pseudomonas bacterial cell count on coated silicone tubing (Pseudomonas spp. CTO7; [22]): 110 cfu/mL; Pseudomonas bacterial cell count on coated silicone tubing (Pseudomonas spp. CTO7; [23]): 11 cfu/mL; Pseudomonas bacterial cell count on coated silicone tubing (Pseudomonas spp. CTO7; [24]): 0 cfu/mL; Pseudomonas bacterial cell count on coated silicone tubing (Pseudomonas spp. CTO7; [25]): 0 cfu/mL; Pseudomonas bacterial cell count on coated silicone tubing (Pseudomonas spp. CTO7; [26]): 300 cfu/mL; Pseudomonas bacterial cell count on coated silicone tubing (Pseudomonas spp. CTO7; [27]): 70 cfu/mL; Pseudomonas bacterial cell count on coated silicone tubing (Pseudomonas spp. CTO7; [28]): 5 cfu/mL; Pseudomonas bacterial cell count on coated silicone tubing (Pseudomonas spp. CTO7; [29]): 0 cfu/mL; Pseudomonas bacterial cell count on coated silicone tubing (Pseudomonas spp. CTO7; [30]): 0 cfu/mL; Pseudomonas bacterial cell count on coated silicone tubing (Pseudomonas spp. CTO7; [31]): 289 cfu/mL; Pseudomonas bacterial cell count on coated silicone tubing (Pseudomonas spp. CTO7; [32]): 31 cfu/mL; Pseudomonas bacterial cell count on coated silicone tubing (Pseudomonas spp. CTO7; [33]): 0 cfu/mL; Pseudomonas bacterial cell count on coated silicone tubing (Pseudomonas spp. CTO7; [34]): 0 cfu/mL; Pseudomonas bacterial cell count on coated silicone tubing (Pseudomonas spp. CTO7; [35]): 0 cfu/mL
"CN(C)c1cccc2c(S(=O)(=O)NCCC[N+](C)(C)CCCCOc3ccc(C(=O)c4ccccc4)cc3)cccc12 (as salt: bromide) [Compound 8a, 4-(4-benzoylphenoxy)-N-(3-(5-(dimethylamino)naphthalene-1-sulfonamido)propyl)-N,N-dimethylbutan-1-ammonium bromide]",,,,,,,,,,,,,,,,,,,,,melting point: 96 to 104 °C
